Reference: ChEMBL document CHEMBL1817626, “The structure-activity relationship of urea derivatives as anti-tuberculosis agents” (Bioorg Med Chem, 2011)
≈ marks a conversion by molar mass, not a printed value. Calls of active or inactive are those of the source. The rule behind the calls is not given here.

Columns and labels:
[1] = system: Escherichia coli; assay: Antibacterial activity against Escherichia coli […] TolC; assay type: functional
[2] = system: Mycobacterium tuberculosis; assay: microbe, parasite or virus in culture; settings: H37Rv, 168 h
[3] = molecular target: T1, Epoxide hydrolase B (Mycobacterium tuberculosis) (UniProt P95276); assay: Inhibition of Mycobacterium tuberculosis recombinant EphB expressed in Escherichia coli BL21 using CMNPC as substrate at 10 nM after 30 mins by fluorescent assay relative to control
T1 sequence (whole entry): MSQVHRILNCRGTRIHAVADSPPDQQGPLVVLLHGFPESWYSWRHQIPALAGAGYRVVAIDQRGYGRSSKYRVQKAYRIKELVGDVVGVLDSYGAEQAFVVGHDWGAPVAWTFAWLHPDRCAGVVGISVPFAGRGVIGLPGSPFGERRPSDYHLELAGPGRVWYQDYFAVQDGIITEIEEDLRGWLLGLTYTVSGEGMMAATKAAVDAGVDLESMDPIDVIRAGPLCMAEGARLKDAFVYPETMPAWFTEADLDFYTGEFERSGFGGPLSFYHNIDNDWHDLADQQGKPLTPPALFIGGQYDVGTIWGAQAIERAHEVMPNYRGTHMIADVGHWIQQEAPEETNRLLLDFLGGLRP

[4] = system: Bacillus anthracis; assay: microbe, parasite or virus in culture
[5] = system: Mycolicibacterium smegmatis; assay: microbe, parasite or virus in culture; settings: str. MC2 155, 168 h
[6] = system: Vero; assay: Cytotoxicity against african green monkey Vero cells after 72 hrs by MTT assay; assay type: cell-based; settings: Chlorocebus sabaeus
[7] = molecular target: T2, Bifunctional epoxide hydrolase 2 (Homo sapiens, UniProt P34913); assay: Inhibition of human recombinant soluble epoxide hydrolase using CMNPC as substrate after 10 mins by fluorescent assay
T2 sequence (P34913 whole entry): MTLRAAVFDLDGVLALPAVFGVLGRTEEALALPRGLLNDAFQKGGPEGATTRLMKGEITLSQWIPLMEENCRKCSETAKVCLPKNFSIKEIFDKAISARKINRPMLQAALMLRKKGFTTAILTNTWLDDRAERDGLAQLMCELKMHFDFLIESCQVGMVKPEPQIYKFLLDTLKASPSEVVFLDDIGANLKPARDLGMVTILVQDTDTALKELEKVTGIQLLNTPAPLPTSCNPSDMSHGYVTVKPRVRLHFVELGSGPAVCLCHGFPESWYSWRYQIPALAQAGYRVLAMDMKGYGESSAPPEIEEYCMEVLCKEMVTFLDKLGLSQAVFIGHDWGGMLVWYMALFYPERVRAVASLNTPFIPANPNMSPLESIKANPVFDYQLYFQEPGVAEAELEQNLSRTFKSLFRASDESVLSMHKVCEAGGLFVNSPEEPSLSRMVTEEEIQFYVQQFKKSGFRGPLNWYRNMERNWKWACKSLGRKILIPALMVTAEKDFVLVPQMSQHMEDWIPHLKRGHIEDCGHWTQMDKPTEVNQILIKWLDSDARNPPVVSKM

[8] = system: Escherichia coli; assay: Antibacterial activity against Escherichia coli K12; assay type: functional; settings: K-12
[9] = system: Staphylococcus aureus; assay: Antibacterial activity against Staphylococcus aureus; assay type: functional
[10] = molecular target: T3, Hydrolase, alpha/beta hydrolase fold family (Mycobacterium tuberculosis) (UniProt O69638); assay: Inhibition of Mycobacterium tuberculosis recombinant EphE expressed in Escherichia coli BL21 using CMNPC as substrate at 10 nM after 30 mins by fluorescent assay relative to control
T3 sequence (whole entry): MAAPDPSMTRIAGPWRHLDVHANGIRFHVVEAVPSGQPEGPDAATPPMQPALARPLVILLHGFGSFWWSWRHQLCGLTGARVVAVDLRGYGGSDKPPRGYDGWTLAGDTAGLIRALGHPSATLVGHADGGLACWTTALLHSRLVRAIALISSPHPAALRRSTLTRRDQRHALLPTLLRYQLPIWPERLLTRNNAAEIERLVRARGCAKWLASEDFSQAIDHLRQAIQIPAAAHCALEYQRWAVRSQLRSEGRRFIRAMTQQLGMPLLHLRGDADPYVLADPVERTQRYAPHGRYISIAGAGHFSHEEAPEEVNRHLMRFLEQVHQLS

[11] = system: Pseudomonas aeruginosa; assay: Antibacterial activity against Pseudomonas aeruginosa; assay type: functional
[12] = system: Klebsiella pneumoniae; assay: Antibacterial activity against Klebsiella pneumoniae; assay type: functional
[13] = system: Enterococcus faecium; assay: Antibacterial activity against Enterococcus faecium; assay type: functional
[14] = system: Enterococcus faecalis; assay: Antibacterial activity against Enterococcus faecalis; assay type: functional

| Compound | MIC [1] | MIC [2] | inhibition [3] | MIC [4] | MIC [5] | IC50 [6] | IC50 [7] | MIC [8] | MIC [9] | inhibition [10] | MIC [11] | MIC [12] | MIC [13] | MIC [14] |
| --- | --- | --- | --- | --- | --- | --- | --- | --- | --- | --- | --- | --- | --- | --- |
| O=C(NCCc1ccccc1)NC1C2CC3CC(C2)CC1C3 (configuration not stated) | > 200 µg/mL | 0.01 µg/mL (≈ 0.0335 µM) | 34.1% | > 200 µg/mL | 25 µg/mL (≈ 83.8 µM) | 30.2 µg/mL (≈ 101 µM) | 4.5 nM | > 200 µg/mL | > 200 µg/mL | 87.9% | > 200 µg/mL | > 200 µg/mL | > 200 µg/mL | > 200 µg/mL |
| O=C(NCc1cccc(Cl)c1)Nc1cccc(C(F)(F)F)c1F | > 200 µg/mL | 1.6 µg/mL (≈ 4.61 µM) | 16.6% | > 200 µg/mL | > 200 µg/mL | 193 µg/mL (≈ 557 µM) | 3.7 nM | > 200 µg/mL | > 200 µg/mL | 15.5% | > 200 µg/mL | > 200 µg/mL | > 200 µg/mL | > 200 µg/mL |
| Cc1ccc(NC(=O)NCc2cccc(F)c2)cc1Cl | > 200 µg/mL | 6 µg/mL (≈ 20.5 µM) | 18.6% | > 200 µg/mL | > 200 µg/mL | 342 µg/mL (≈ 1170 µM) | 16.6 nM | > 200 µg/mL | > 200 µg/mL | 19% | > 200 µg/mL | > 200 µg/mL | > 200 µg/mL | > 200 µg/mL |
| CC1C(NC(=O)Nc2ccc(F)c(F)c2F)CC2CC1C2(C)C (configuration not stated) | 1.6 µg/mL (≈ 4.9 µM) | 0.02 µg/mL (≈ 0.0613 µM) | 76.3% | 3.12 µg/mL (≈ 9.56 µM) | 0.8 µg/mL (≈ 2.45 µM) | 16 µg/mL (≈ 49 µM) | 0.4 nM | > 200 µg/mL | 3.12 µg/mL (≈ 9.56 µM) | 86.1% | > 200 µg/mL | > 200 µg/mL | > 200 µg/mL | > 200 µg/mL |
| Cc1ccc(NC(=O)NC(C)CCc2ccccc2)cc1Cl (configuration not stated) | > 200 µg/mL | 6 µg/mL (≈ 18.9 µM) | 81.9% | > 200 µg/mL | 25 µg/mL (≈ 78.9 µM) | > 400 µg/mL | 15 nM | > 200 µg/mL | > 200 µg/mL | 97.4% | > 200 µg/mL | > 200 µg/mL | > 200 µg/mL | > 200 µg/mL |
| CC(C)(C)NC(=O)NC1C2CC3CC(C2)CC1C3 (configuration not stated) | > 200 µg/mL | 12.5 µg/mL (≈ 49.9 µM) | 20.7% | > 200 µg/mL | > 200 µg/mL | 372 µg/mL (≈ 1490 µM) | 24.2 nM | > 200 µg/mL | > 200 µg/mL | 55.4% | > 200 µg/mL | > 200 µg/mL | > 200 µg/mL | > 200 µg/mL |
| Cc1c(Cl)cccc1NC(=O)NC1C2CC3CC(C2)CC1C3 (configuration not stated) | > 200 µg/mL | 1.6 µg/mL (≈ 5.02 µM) | 9.8% | > 200 µg/mL | > 100 µg/mL | 26.4 µg/mL (≈ 82.8 µM) | 4.5 nM | > 200 µg/mL | > 200 µg/mL | 58.3% | > 200 µg/mL | > 200 µg/mL | > 200 µg/mL | > 200 µg/mL |
| CCCNC(=O)NC1C2CC3CC(C2)CC1C3 (configuration not stated) | > 200 µg/mL | 12.5 µg/mL (≈ 52.9 µM) | 51.9% | > 200 µg/mL | 200 µg/mL (≈ 846 µM) | 171 µg/mL (≈ 723 µM) | 61.4 nM | > 200 µg/mL | > 200 µg/mL | 73.6% | > 200 µg/mL | > 200 µg/mL | > 200 µg/mL | > 200 µg/mL |
| CC(=O)c1cccc(NC(=O)NC2C3CC4CC(C3)CC2C4)c1 (configuration not stated) | > 200 µg/mL | 0.1 µg/mL (≈ 0.32 µM) | 80.6% | > 200 µg/mL | 6.25 µg/mL (≈ 20 µM) | 9.7 µg/mL (≈ 31 µM) | 0.5 nM | > 200 µg/mL | > 200 µg/mL | 31.4% | > 200 µg/mL | > 200 µg/mL | > 200 µg/mL | > 200 µg/mL |
| CCCCCCNC(=O)NC1C2CC3CC(C2)CC1C3 (configuration not stated) | > 200 µg/mL | 0.01 µg/mL (≈ 0.0359 µM) | 32% | > 200 µg/mL | 6.25 µg/mL (≈ 22.4 µM) | 175 µg/mL (≈ 628 µM) | 1 nM | > 200 µg/mL | > 200 µg/mL | 100% | > 200 µg/mL | > 200 µg/mL | > 200 µg/mL | > 200 µg/mL |
| CCCCCCCNC(=O)NC1C2CC3CC(C2)CC1C3 (configuration not stated) | > 200 µg/mL | 0.2 µg/mL (≈ 0.684 µM) | 37.1% | > 200 µg/mL | 1.6 µg/mL (≈ 5.47 µM) | 20 µg/mL (≈ 68.4 µM) | 0.5 nM | > 200 µg/mL | > 200 µg/mL | 99.9% | > 200 µg/mL | > 200 µg/mL | > 200 µg/mL | > 200 µg/mL |
| CCCCCNC(=O)NC1C2CC3CC(C2)CC1C3 (configuration not stated) | > 200 µg/mL | 0.39 µg/mL (≈ 1.47 µM) | 58.6% | > 200 µg/mL | 12.5 µg/mL (≈ 47.3 µM) | 11.6 µg/mL (≈ 43.9 µM) | 6.4 nM | > 200 µg/mL | > 200 µg/mL | 90.5% | > 200 µg/mL | > 200 µg/mL | > 200 µg/mL | > 200 µg/mL |
| CCCOCCNC(=O)NC12CC3CC(CC(C3)C1)C2 | 200 µg/mL (≈ 713 µM) | 25 µg/mL (≈ 89.2 µM) | 16.6% | > 200 µg/mL | 200 µg/mL (≈ 713 µM) | 265 µg/mL (≈ 944 µM) | 243 nM | > 200 µg/mL | > 200 µg/mL | 35% | > 200 µg/mL | > 200 µg/mL | > 200 µg/mL | > 200 µg/mL |
| O=C(NCC12CC3CC(CC(C3)C1)C2)Nc1ccc(F)c(F)c1F | 1.6 µg/mL (≈ 4.73 µM) | 0.01 µg/mL (≈ 0.0296 µM) | 44.2% | 1.6 µg/mL (≈ 4.73 µM) | 0.8 µg/mL (≈ 2.36 µM) | 1.18 µg/mL (≈ 3.49 µM) | 0.4 nM | > 200 µg/mL | 3.12 µg/mL (≈ 9.22 µM) | 90.8% | 50 µg/mL (≈ 148 µM) | > 200 µg/mL | > 200 µg/mL | > 200 µg/mL |
| CCCCCCCNC(=O)Nc1ccc(C)c(Cl)c1 | > 200 µg/mL | 3.1 µg/mL (≈ 11 µM) | 91% | > 200 µg/mL | > 200 µg/mL | 186 µg/mL (≈ 659 µM) | 1.6 nM | > 200 µg/mL | > 200 µg/mL | 99.3% | > 200 µg/mL | > 200 µg/mL | > 200 µg/mL | > 200 µg/mL |
| O=C(NCc1ccccc1)NC1C2CC3CC(C2)CC1C3 (configuration not stated) | > 200 µg/mL | 3.1 µg/mL (≈ 10.9 µM) | inactive | > 200 µg/mL | 100 µg/mL (≈ 352 µM) | 4.2 µg/mL (≈ 14.8 µM) | 14.8 nM | > 200 µg/mL | > 200 µg/mL | 34.1% | > 200 µg/mL | > 200 µg/mL | > 200 µg/mL | > 200 µg/mL |
| COC(=O)c1ccc(NC(=O)NC23CC4CC(CC(C4)C2)C3)cc1O | > 200 µg/mL | 0.4 µg/mL (≈ 1.16 µM) | 26.9% | > 200 µg/mL | 50 µg/mL (≈ 145 µM) | 30.3 µg/mL (≈ 88 µM) | 1.2 nM | > 200 µg/mL | > 200 µg/mL | 79.5% | > 200 µg/mL | > 200 µg/mL | > 200 µg/mL | > 200 µg/mL |
| CC(CCc1ccccc1)NC(=O)Nc1cccc(C(F)(F)F)c1F (configuration not stated) | 6.25 µg/mL (≈ 17.6 µM) | 1.6 µg/mL (≈ 4.52 µM) | inactive | > 200 µg/mL | 6.25 µg/mL (≈ 17.6 µM) | 38.5 µg/mL (≈ 109 µM) | 1.9 nM | > 200 µg/mL | > 200 µg/mL | 63.9% | > 200 µg/mL | > 200 µg/mL | 100 µg/mL (≈ 282 µM) | 100 µg/mL (≈ 282 µM) |
